In patent US20230055321A1, “PYRIMIDOPYRROLE SPIRO COMPOUNDS AND DERIVATIVES THEREOF AS DNA-PK INHIBITORS” (MEDSHINE DISCOVERY INC., priority 2019, published 2023):
Like-named read-outs stand apart in the source and are kept apart here.

Assays:
Human-derived DNA-PK = Human-derived DNA-PK (Homo sapiens, UniProt P78527); test: DNA-dependent protein kinase (DNA-PK) inhibitory activity screening experiment (Eurofins, HTRF); type: biochemical; conditions: 50 nM GST-cMyc-p53, 30 minutes at room temperature
Method: Experimental Method (Eurofins Pharma Discovery Service) DNA-PK (h) was incubated in assay buffer containing 50 nM GST-cMyc-p53 and Mg/ATP (according to the required concentration). The reaction was initiated by adding Mg/ATP mixture. After 30 minutes of incubation at room temperature, the reaction was stopped by the addition of stop solution containing EDTA. Finally, detection buffer (containing labeled anti-GST monoclonal antibody and europium-labeled anti-Ser15 antibody against phosphorylated p53) was added.

[1] = Pharmacokinetic evaluation in mice, plasma, IV and PO; type: in vivo; conditions: Balb/c male mice; for Tlast / AUC(0-t) / C0 / clearance / half-life / Vd / Cmax / Tmax / AUC0-last / T1/2: plasma; for F: PO (2 mg/kg) vs IV (0.4 mg/kg); for Vd: read-out: Vdss
Method: The test compound was mixed with 10% dimethyl sulfoxide/50% polyethylene glycol 200/40% water, vortexed and sonicated to prepare a nearly clear solution of 0.08 mg/mL, which was filtered with a microporous membrane for use. Balb/c male mice of 18 to 20 grams were selected, and the candidate compound solution was administered intravenously at a dose of 0.4 mg/kg. The test compound was mixed with 10% dimethyl sulfoxide/50% polyethylene glycol 200/40% water, vortexed and sonicated to prepare a nearly clear solution of 0.2 mg/mL, which was filtered with a microporous membrane for use. Balb/c male mice of 18 to 20 grams were selected, and the candidate compound solution was orally administered at a dose of 2 mg/kg. Whole blood was collected for a certain period of time, and plasma was prepared, then drug concentration was analyzed by LC-MS/MS method, and pharmacokinetic parameters were calculated by Phoenix WinNonlin software (Pharsight, USA).
IV: intravenous administration; PO: oral administration; C0: instantaneous required concentration after intravenous injection; Cmax: maximum blood drug concentration after administration; Tmax: time required to reach the peak drug concentration after administration; T1/2: time required for the blood drug concentration to decrease by half; Vdss: apparent volume of distribution, refers to the proportional constant of the drug dose in vivo and the blood drug concentration when the drug reaches a dynamic equilibrium in vivo. Cl: clearance rate, refers to the apparent volume of distribution of the drug cleared in vivo per unit time; Tlast: time at the last detection point; AUC0-last: area under the drug-time curve, refers to the area surrounded by the blood drug concentration curve to the time axis; F: a measure of the speed and degree of drug absorption into the blood circulation, which is an important index for evaluating the degree of drug absorption.

[2] = ATP: 10 μM, read-out: DNA-PK kinase inhibitory activity IC50
[3] = mouse, PO (2 mg/kg), read-out: Tmax

Structure (SMILES): COC1CCC2(CC1)C(=O)N(C)c1cnc(Nc3cn4ncnc4cc3C)nc12 (single isomer, unassigned) [Compound 3]
- IC50 (Human-derived DNA-PK; [2]): 10 nM

Structure (SMILES): COC1CCC2(CC1)C(=O)N(C)c1cnc(Nc3cn4ncnc4cc3C)nc12 (single isomer, unassigned) [Compound 4]
- IC50 (Human-derived DNA-PK; [2]): 4 nM

Structure (SMILES): Cc1cc2ncnn2cc1Nc1ncc2c(n1)C1(CCC(C(F)(F)F)CC1)C(=O)N2C (single isomer, unassigned) [Compound 18]
- IC50 (Human-derived DNA-PK; [2]): 4 nM

Structure (SMILES): Cc1cc2ncnn2cc1Nc1ncc2c(n1)C1(CCC(C(F)(F)F)CC1)C(=O)N2C (single isomer, unassigned) [Compound 19]
- IC50 (Human-derived DNA-PK; [2]): 7 nM

Structure (SMILES): Cc1cc2ncnn2cc1Nc1ncc2c(n1)C1(CCC(O)CC1)C(=O)N2C (single isomer, unassigned) [Compound 22]
- IC50 (Human-derived DNA-PK; [2]): 11 nM

Structure (SMILES): COC1(C)CCC2(CC1)C(=O)N(C)c1cnc(Nc3cn4ncnc4cc3C)nc12 (single isomer, unassigned) [Compound 27]
- IC50 (Human-derived DNA-PK; [2]): 10 nM

Structure (SMILES): COC1(C)CCC2(CC1)C(=O)N(C)c1cnc(Nc3cn4ncnc4cc3C)nc12 (single isomer, unassigned) [Compound 28]
- IC50 (Human-derived DNA-PK; [2]): 3 nM

Structure (SMILES): Cc1cc2ncnn2cc1Nc1ncc2c(n1)C1(CCOCC1)C(=O)N2C [Compound 1]
- IC50 (Human-derived DNA-PK; DNA-PK kinase inhibitory activity IC50, ATP: 10 μM): 39 nM

Structure (SMILES): Cc1cc2ncnn2cc1Nc1ncc2c(n1)C1(CCCCC1)C(=O)N2C [Compound 2]
- IC50 (Human-derived DNA-PK; [2]): 6 nM

Structure (SMILES): Cc1cc2ncnn2cc1Nc1ncc2c(n1)C1(CCCOCC1)C(=O)N2C (stereo not shown) [Compound 5]
- IC50 (Human-derived DNA-PK; [2]): 16 nM

Structure (SMILES): CC(=O)N1CCC2(CC1)C(=O)N(C)c1cnc(Nc3cn4ncnc4cc3C)nc12 [Compound 6]
- IC50 (Human-derived DNA-PK; [2]): 6 nM

Structure (SMILES): Cc1cc2ncnn2cc1Nc1ncc2c(n1)C1(CCN(C)CC1)C(=O)N2C [Compound 7]
- IC50 (Human-derived DNA-PK; [2]): 25 nM

Structure (SMILES): Cc1cc2ncnn2cc1Nc1ncc2c(n1)C1(CCN(CC(F)(F)F)CC1)C(=O)N2C [Compound 8]
- IC50 (Human-derived DNA-PK; [2]): 4 nM

Structure (SMILES): Cc1cc2ncnn2cc1Nc1ncc2c(n1)C1(CCC(F)(F)CC1)C(=O)N2C [Compound 9]
- IC50 (Human-derived DNA-PK; [2]): 3 nM
- Tlast ([1]; IV (0.4 mg/kg)): 2 h
- F [1]: 74.5%
- Tlast ([1]; PO (2 mg/kg)): 4 h
- AUC(0-t) ([1]; mouse, IV (0.4 mg/kg)): 0.311 µM·h
- C0 ([1]; mouse, IV (0.4 mg/kg)): 871 nM
- clearance ([1]; mouse, IV (0.4 mg/kg)): 53.4 mL/min/kg
- half-life ([1]; mouse, IV (0.4 mg/kg)): 14.5 min
- Vd ([1]; mouse, IV (0.4 mg/kg)): 1.07 L/kg
- AUC(0-t) ([1]; mouse, PO (2 mg/kg)): 1.16 µM·h
- Cmax ([1]; mouse, PO (2 mg/kg)): 1080 nM
- half-life ([1]; mouse, PO (2 mg/kg)): 28.7 min
- Tmax [1, 3]: 30 min

Structure (SMILES): Cc1cc2ncnn2cc1Nc1ncc2c(n1)C1(CC=C(F)CC1)C(=O)N2C (stereo not shown) [Compound 10]
- IC50 (Human-derived DNA-PK; [2]): 7 nM

Structure (SMILES): Cc1cc2ncnn2cc1Nc1ncc2c(n1)C1(CCC3(CCC3)CC1)C(=O)N2C [Compound 11]
- IC50 (Human-derived DNA-PK; [2]): 1 nM
- Tlast ([1]; IV (0.4 mg/kg)): 2 h
- F [1]: 73.7%
- Tlast ([1]; PO (2 mg/kg)): 4 h
- AUC(0-t) ([1]; mouse, IV (0.4 mg/kg)): 0.349 µM·h
- C0 ([1]; mouse, IV (0.4 mg/kg)): 1250 nM
- clearance ([1]; mouse, IV (0.4 mg/kg)): 47.2 mL/min/kg
- half-life ([1]; mouse, IV (0.4 mg/kg)): 14.5 min
- Vd ([1]; mouse, IV (0.4 mg/kg)): 0.855 L/kg
- AUC(0-t) ([1]; mouse, PO (2 mg/kg)): 1.29 µM·h
- Cmax ([1]; mouse, PO (2 mg/kg)): 1220 nM
- half-life ([1]; mouse, PO (2 mg/kg)): 29.6 min
- Tmax [1, 3]: 30 min

Structure (SMILES): Cc1cc2ncnn2cc1Nc1ncc2c(n1)C1(CCC(C)(C)CC1)C(=O)N2C [Compound 12]
- IC50 (Human-derived DNA-PK; [2]): 1 nM
- AUC0-last ([1]; IV (0.4 mg/kg)): 0.358 µM·h
- T1/2 ([1]; IV (0.4 mg/kg)): 12.2 min
- Tlast ([1]; IV (0.4 mg/kg)): 1 h
- F [1]: 114%
- AUC0-last ([1]; PO (2 mg/kg)): 2.036 µM·h
- Cmax ([1]; PO (2 mg/kg)): 1860 nM
- T1/2 ([1]; PO (2 mg/kg)): 29.5 min
- Tlast ([1]; PO (2 mg/kg)): 4 h
- Tmax ([1]; PO (2 mg/kg)): 30 min
- C0 ([1]; mouse, IV (0.4 mg/kg)): 1280 nM
- clearance ([1]; mouse, IV (0.4 mg/kg)): 45.8 mL/min/kg
- Vd ([1]; mouse, IV (0.4 mg/kg)): 0.794 L/kg

Structure (SMILES): Cc1cc2ncnn2cc1Nc1ncc2c(n1)C1(CCC3(CC1)COC3)C(=O)N2C [Compound 13]
- IC50 (Human-derived DNA-PK; [2]): 6 nM

Structure (SMILES): CON=C1CCC2(CC1)C(=O)N(C)c1cnc(Nc3cn4ncnc4cc3C)nc12 (stereo not shown) [Compound 14]
- IC50 (Human-derived DNA-PK; [2]): 11 nM

Structure (SMILES): Cc1cc2ncnn2cc1Nc1ncc2c(n1)C1(CCC3(CC3)CC1)C(=O)N2C [Compound 15]
- IC50 (Human-derived DNA-PK; [2]): 4 nM
- AUC0-last ([1]; IV (0.4 mg/kg)): 0.454 µM·h
- T1/2 ([1]; IV (0.4 mg/kg)): 15.2 min
- Tlast ([1]; IV (0.4 mg/kg)): 2 h
- F [1]: 83%
- AUC0-last ([1]; PO (2 mg/kg)): 1.882 µM·h
- T1/2 ([1]; PO (2 mg/kg)): 59.8 min
- Tlast ([1]; PO (2 mg/kg)): 8 h
- Tmax ([1]; PO (2 mg/kg)): 15 min
- C0 ([1]; mouse, IV (0.4 mg/kg)): 1230 nM
- clearance ([1]; mouse, IV (0.4 mg/kg)): 37.6 mL/min/kg
- Vd ([1]; mouse, IV (0.4 mg/kg)): 0.853 L/kg
- Cmax ([1]; mouse, PO (2 mg/kg)): 1640 nM

Structure (SMILES): Cc1cc2ncnn2cc1Nc1ncc2c(n1)C1(CC1)C(=O)N2C [Compound 16]
- IC50 (Human-derived DNA-PK; [2]): 39 nM

Structure (SMILES): Cc1cc2ncnn2cc1Nc1ncc2c(n1)C1(CCCC1)C(=O)N2C [Compound 17]
- IC50 (Human-derived DNA-PK; [2]): 7 nM

Structure (SMILES): Cc1cc2ncnn2cc1Nc1ncc2c(n1)C1(CCC(=O)CC1)C(=O)N2C [Compound 20]
- IC50 (Human-derived DNA-PK; [2]): 15 nM

Structure (SMILES): Cc1cc2ncnn2cc1Nc1ncc2c(n1)C1(CCSCC1)C(=O)N2C [Compound 23]
- IC50 (Human-derived DNA-PK; [2]): 8 nM

Structure (SMILES): Cc1cc2ncnn2cc1Nc1ncc2c(n1)C1(CCS(=O)(=O)CC1)C(=O)N2C [Compound 24]
- IC50 (Human-derived DNA-PK; [2]): 84 nM
